The experiment deals with BDF1 mice, s.c. Lewis lung carcinoma, T/C %. Briefly: NCI In Vivo Anticancer Drug Screen. Data for tumor model Lewis Lung Carcinoma (subcutaneous) in B6D2F1 (BDF1) mice. In outline:
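The value reflects a ratio in which the treated cohort's survival time or tumour size is compared against mice receiving only vehicle.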

The mark [1] stands for this setting: endpoint: median survival time, dose: 25.0 mg/kg/injection, schedule: Q01DX009 (ip), vehicle: saline with Tween-80, higher = longer survival.

“And” between values parts separate entries of the source, which are not always exact repeats. Equal values may be shown once. Records with an inconclusive call do not appear.

For `CO[C@@H]1[C@@H](OC2OC(C)C(OC3CC(C)(O)C(OC(=O)CC(C)C)C(C)O3)C(N(C)C)C2O)[C@@H](CC=O)C[C@@H](C)C(=O)/C=C/C2O[C@H]2C[C@@H](C)OC(=O)C[C@H]1OC(C)=O` (stereo partly specified), the T/C is 98 % of control (endpoint: mean tumor weight, dose: 37.5 mg/kg/injection, schedule: Q01DX011 (ip), vehicle: other, higher = larger tumour); 83 % of control (endpoint: mean tumor weight, dose: 37.5 mg/kg/injection, schedule: Q01DX011 (ip), vehicle: saline, higher = larger tumour); 76 % of control (endpoint: mean tumor weight, dose: 75.0 mg/kg/injection, schedule: Q01DX011 (ip), vehicle: other, higher = larger tumour); 47 % of control (endpoint: mean tumor weight, dose: 150.0 mg/kg/injection, schedule: Q01DX011 (ip), vehicle: other, higher = larger tumour); 63 % of control and 81 % of control (endpoint: mean tumor weight, dose: 150.0 mg/kg/injection, schedule: Q01DX011 (ip), vehicle: saline, higher = larger tumour); 15 % of control (endpoint: mean tumor weight, dose: 300.0 mg/kg/injection, schedule: Q01DX011 (ip), vehicle: other, higher = larger tumour). Also, the T/C (endpoint: mean tumor weight, dose: 300.0 mg/kg/injection, schedule: Q01DX011 (ip), vehicle: saline, higher = larger tumour) is 44 % of control and 48 % of control.

`COC12C(COC(N)=O)C3=C(C(=O)C(C)=C(N)C3=O)N1CC1C2N1C` (stereo unspecified): the T/C runs as follows: (endpoint: median survival time, dose: 2.0 mg/kg/injection, schedule: Q01DX011 (ip), vehicle: other, higher = longer survival) 98 % of control; (endpoint: median survival time, dose: 4.0 mg/kg/injection, schedule: Q01DX011 (ip), vehicle: other, higher = longer survival) 96 % of control.

For `COc1cccc2c1C(=O)c1c(O)c3c(c(O)c1C2=O)C[C@@](O)(C(C)=O)C[C@@H]3OC1CC(N)C(O)C(C)O1` (stereo partly specified), the T/C was 85 % of control (endpoint: mean tumor weight, dose: 0.6 mg/kg/injection, schedule: Q01DX011 (ip), vehicle: saline, higher = larger tumour); 116 % of control (endpoint: mean tumor weight, dose: 1.0 mg/kg/injection, schedule: Q01DX011 (sc), vehicle: steriod suspending solution, higher = larger tumour); 89 % of control (endpoint: mean tumor weight, dose: 1.2 mg/kg/injection, schedule: Q01DX011 (ip), vehicle: saline, higher = larger tumour); 69 % of control and 81 % of control (endpoint: mean tumor weight, dose: 1.8 mg/kg/injection, schedule: Q01DX011 (ip), vehicle: saline, higher = larger tumour); 56 % of control (endpoint: mean tumor weight, dose: 2.7 mg/kg/injection, schedule: Q01DX011 (ip), vehicle: saline, higher = larger tumour); 81 % of control (endpoint: mean tumor weight, dose: 5.0 mg/kg/injection, schedule: Q01DX011 (sc), vehicle: steriod suspending solution, higher = larger tumour). For the same molecule, the T/C runs as follows: (endpoint: median survival time, dose: 0.12 mg/kg/injection, schedule: Q01DX009 (ip), vehicle: saline, higher = longer survival) 101 % of control and 104 % of control and 110 % of control; (endpoint: median survival time, dose: 125.0 micrograms/kg/injection, schedule: Q01DX009 (ip), vehicle: saline, higher = longer survival) 92 % of control; (endpoint: median survival time, dose: 500.0 micrograms/kg/injection, schedule: Q01DX009 (ip), vehicle: saline, higher = longer survival) 100 % of control; (endpoint: median survival time, dose: 1000.0 micrograms/kg/injection, schedule: Q01DX009 (ip), vehicle: saline, higher = longer survival) 90 % of control; (endpoint: median survival time, dose: 2000.0 micrograms/kg/injection, schedule: Q01DX009 (ip), vehicle: saline, higher = longer survival) 97 % of control.

Regarding `O`, the T/C (endpoint: median survival time, dose: 100.0 mg/kg/injection, schedule: Q02DX009 (ip), vehicle: saline, higher = longer survival) was 91 % of control; the T/C (endpoint: median survival time, dose: 200.0 mg/kg/injection, schedule: Q02DX009 (ip), vehicle: saline, higher = longer survival) is 110 % of control; the T/C (endpoint: median survival time, dose: 600.0 mg/kg/injection, schedule: Q02DX009 (ip), vehicle: saline, higher = longer survival) was 94 % of control.

In the case of `S=c1nc[nH]c2c1ncn2C1CCCO1` (stereo unspecified), the T/C (endpoint: mean tumor weight, dose: 12.5 mg/kg/injection, schedule: Q01DX011 (ip), vehicle: other, higher = larger tumour) was 36 % of control; the T/C (endpoint: mean tumor weight, dose: 25.0 mg/kg/injection, schedule: Q01DX011 (ip), vehicle: other, higher = larger tumour) is 86 % of control; the T/C (endpoint: mean tumor weight, dose: 50.0 mg/kg/injection, schedule: Q01DX011 (ip), vehicle: other, higher = larger tumour) is 91 % of control; the T/C (endpoint: mean tumor weight, dose: 100.0 mg/kg/injection, schedule: Q01DX011 (ip), vehicle: other, higher = larger tumour) is 67 % of control.

For `CCCCCC[C@H]([C@H](C)O)n1cnc2c(N)ncnc21`, the T/C (endpoint: median survival time, dose: 25.0 mg/kg/injection, schedule: Q01DX009 (ip), vehicle: Klucel (hydroxypropylcellulose) (HPC), higher = longer survival) is 88 % of control; the T/C (endpoint: median survival time, dose: 50.0 mg/kg/injection, schedule: Q01DX009 (ip), vehicle: Klucel (hydroxypropylcellulose) (HPC), higher = longer survival) was 103 % of control; the T/C (endpoint: median survival time, dose: 100.0 mg/kg/injection, schedule: Q01DX009 (ip), vehicle: Klucel (hydroxypropylcellulose) (HPC), higher = longer survival) is 111 % of control.

`S=C(N=Nc1ccccc1)NNc1ccccc1`: the T/C (endpoint: mean tumor weight, dose: 45.0 mg/kg/injection, schedule: Q01DX011 (ip), vehicle: carboxymethylcellulose (CMC), higher = larger tumour) was 60 % of control.

On to `CCOC(=O)NC1=C(N2CC2)C(=O)C(NC(=O)OCC)=C(N2CC2)C1=O`, for which the T/C runs as follows: (endpoint: median survival time, dose: 0.5 mg/kg/injection, schedule: Q01DX009 (ip), vehicle: saline with Tween-80, higher = longer survival) 110 % of control; (endpoint: median survival time, dose: 0.67 mg/kg/injection, schedule: Q01DX005 (ip), vehicle: saline with Tween-80, higher = longer survival) 92 % of control; (endpoint: median survival time, dose: 2.5 mg/kg/injection, schedule: Q01DX005 (ip), vehicle: saline with Tween-80, higher = longer survival) 91 % of control; (endpoint: median survival time, dose: 3.0 mg/kg/injection, schedule: Q01DX009 (ip), vehicle: saline with Tween-80, higher = longer survival) 100 % of control; (endpoint: median survival time, dose: 3.0 mg/kg/injection, schedule: Q04DX003 (ip), vehicle: saline with Tween-80, higher = longer survival) 86 % of control; (endpoint: median survival time, dose: 4.0 mg/kg/injection, schedule: Q04DX003 (ip), vehicle: saline with Tween-80, higher = longer survival) 93 % of control. Besides, the T/C reads like this: (endpoint: median survival time, dose: 4.5 mg/kg/injection, schedule: Q01DX009 (ip), vehicle: saline with Tween-80, higher = longer survival) 96 % of control; (endpoint: median survival time, dose: 17.0 mg/kg/injection, schedule: Q01DX001 (ip), vehicle: saline with Tween-80, higher = longer survival) 100 % of control; (endpoint: median survival time, dose: 26.0 mg/kg/injection, schedule: Q01DX001 (ip), vehicle: saline with Tween-80, higher = longer survival) 86 % of control.

As for `COc1cc(-c2ccc(Nc3ccccc3C(=O)O)c(OC)c2)ccc1N`, the T/C is 86 % of control (endpoint: mean tumor weight, dose: 10.0 mg/kg/injection, schedule: Q01DX011 (ip), vehicle: carboxymethylcellulose (CMC), higher = larger tumour); 72 % of control (endpoint: mean tumor weight, dose: 20.0 mg/kg/injection, schedule: Q01DX011 (ip), vehicle: carboxymethylcellulose (CMC), higher = larger tumour); 37 % of control (endpoint: mean tumor weight, dose: 40.0 mg/kg/injection, schedule: Q01DX011 (ip), vehicle: carboxymethylcellulose (CMC), higher = larger tumour).

Take `S=C([S][Sn]([c]1ccccc1)([c]1ccccc1)[c]1ccccc1)N1CCCCC1`: the T/C reads like this: (endpoint: median survival time, dose: 3.12 mg/kg/injection, schedule: Q01DX009 (ip), vehicle: saline with Tween-80, higher = longer survival) 102 % of control; (endpoint: median survival time, dose: 12.5 mg/kg/injection, schedule: Q01DX009 (ip), vehicle: saline with Tween-80, higher = longer survival) 94 % of control; under setting [1], 89 % of control.

Take `CC1CCCCN1CCNc1ccc(CO)c2sc3ccccc3c(=O)c12` (stereo unspecified): the T/C was 108 % of control under setting [1]; 100 % of control (endpoint: median survival time, dose: 50.0 mg/kg/injection, schedule: Q01DX009 (ip), vehicle: saline with Tween-80, higher = longer survival); 122 % of control (endpoint: median survival time, dose: 100.0 mg/kg/injection, schedule: Q01DX009 (ip), vehicle: saline with Tween-80, higher = longer survival).

Take `O=c1[nH]c2cc(Cl)c(Cl)cc2o1`: the T/C is 79 % of control (endpoint: mean tumor weight, dose: 22.0 mg/kg/injection, schedule: Q01DX011 (ip), vehicle: carboxymethylcellulose (CMC), higher = larger tumour); 93 % of control (endpoint: mean tumor weight, dose: 35.0 mg/kg/injection, schedule: Q01DX011 (ip), vehicle: carboxymethylcellulose (CMC), higher = larger tumour); 95 % of control (endpoint: mean tumor weight, dose: 50.0 mg/kg/injection, schedule: Q01DX011 (ip), vehicle: carboxymethylcellulose (CMC), higher = larger tumour); 77 % of control and 84 % of control (endpoint: mean tumor weight, dose: 75.0 mg/kg/injection, schedule: Q01DX011 (ip), vehicle: carboxymethylcellulose (CMC), higher = larger tumour); 114 % of control (endpoint: mean tumor weight, dose: 115.0 mg/kg/injection, schedule: Q01DX011 (ip), vehicle: carboxymethylcellulose (CMC), higher = larger tumour).

In the case of `O=NN(CCF)C(=O)NC1CCCCC1`, the T/C (endpoint: median survival time, dose: 5.0 mg/kg/injection, schedule: Q01DX001 (ip), vehicle: Klucel (hydroxypropylcellulose) (HPC), higher = longer survival) is 101 % of control (2×) and 119 % of control; the T/C (endpoint: median survival time, dose: 5.1 mg/kg/injection, schedule: Q01DX001 (ip), vehicle: other, higher = longer survival) is 96 % of control; the T/C (endpoint: median survival time, dose: 10.0 mg/kg/injection, schedule: Q01DX001 (ip), vehicle: Klucel (hydroxypropylcellulose) (HPC), higher = longer survival) was 90 % of control and 116 % of control and 119 % of control; the T/C (endpoint: median survival time, dose: 10.2 mg/kg/injection, schedule: Q01DX001 (ip), vehicle: other, higher = longer survival) was 105 % of control; the T/C (endpoint: median survival time, dose: 20.0 mg/kg/injection, schedule: Q01DX001 (ip), vehicle: Klucel (hydroxypropylcellulose) (HPC), higher = longer survival) is 101 % of control and 109 % of control and 119 % of control; the T/C (endpoint: median survival time, dose: 20.4 mg/kg/injection, schedule: Q01DX001 (ip), vehicle: other, higher = longer survival) was 121 % of control. For the setting “endpoint: median survival time, dose: 40.0 mg/kg/injection, schedule: Q01DX001 (ip), vehicle: Klucel (hydroxypropylcellulose) (HPC), higher = longer survival”, the T/C is 182 % of control.

For `O=P(c1ccccc1)(N1CC1)N1CC1`, the T/C is 65 % of control (endpoint: mean tumor weight, dose: 11.0 mg/kg/injection, schedule: Q01DX011 (ip), vehicle: saline, higher = larger tumour); 93 % of control (endpoint: mean tumor weight, dose: 17.0 mg/kg/injection, schedule: Q01DX011 (ip), vehicle: saline, higher = larger tumour); 69 % of control (endpoint: mean tumor weight, dose: 25.0 mg/kg/injection, schedule: Q01DX011 (ip), vehicle: saline, higher = larger tumour); 38 % of control (endpoint: mean tumor weight, dose: 38.0 mg/kg/injection, schedule: Q01DX011 (ip), vehicle: saline, higher = larger tumour); 52 % of control (endpoint: mean tumor weight, dose: 76.0 mg/kg/injection, schedule: Q01DX011 (ip), vehicle: saline, higher = larger tumour).

Values taken from PubChem BioAssay AID270 (DTP/NCI, 2004).
